Source: patent US20100311714A1, “1H-IMIDAZO[4,5-c]QUINOLINONE COMPOUNDS” (priority 2009, published 2010)

Tested on: PKB Ser473 phosphorylation in Rat1-myr-HA-p110 beta cells
Assay: Reverse protein array, PKB Ser473 phosphorylation in Rat1-myr-HA-p110 beta cells
Assay type: cell-based
Details: Rattus norvegicus, 0.5 h, 30 minutes compound incubation, read-out: p-PKB/IC50_beta

| IC50 [nM] | SMILES |
| --- | --- |
| 103 | COCc1ncc(-c2ccc3ncc4c(c3c2)n(-c2ccc(N3CCC3)nc2C)c(=O)n4C)cc1OC [Example 23.6, 1-(6-Azetidin-1-yl-2-methyl-pyridin-3-yl)-8-(5-methoxy-6-methoxymethyl-pyridin-3-yl)-3-methyl-1,3-dihydro-imidazo[4,5-c]quinolin-2-one] |
| 131 | CNC(=O)c1ccc(-c2ccc3ncc4c(c3c2)n(-c2ncccc2C)c(=O)n4C)cc1 [Example 3.5, N-Methyl-4-[3-methyl-1-(3-methyl-pyridin-2-yl)-2-oxo-2,3-dihydro-1H-imidazo[4,5-c]quinolin-8-yl]-benzamide] |
| 53.4 | COCc1ncc(-c2ccc3ncc4c(c3c2)n(-c2ccc(N3CCC3)nc2C)c(=O)n4C)cc1OC(C)C [Example 23.2, 1-(6-Azetidin-1-yl-2-methyl-pyridin-3-yl)-8-(5-isopropoxy-6-methoxymethyl-pyridin-3-yl)-3-methyl-1,3-dihydro-imidazo[4,5-c]quinolin-2-one] |
| 136 | Cc1nc(N2CCC2)ccc1-n1c(=O)n(C)c2cnc3ccc(-c4cncc(OC(C)C)c4)cc3c21 [Example 23.9, 1-(6-Azetidin-1-yl-2-methyl-pyridin-3-yl)-8-(5-isopropoxy-pyridin-3-yl)-3-methyl-1,3-dihydro-imidazo[4,5-c]quinolin-2-one] |
| 689 | Cc1cccnc1-n1c(=O)n(C)c2cnc3ccc(-c4ccc(CO)nc4)cc3c21 [Example 3.9, 8-(6-Hydroxymethyl-pyridin-3-yl)-3-methyl-1-(3-methyl-pyridin-2-yl)-1,3-dihydro-imidazo[4,5-c]quinolin-2-one] |
| 694 | Cc1ccncc1-n1c(=O)n(C)c2cnc3ccc(-c4ccc(CO)nc4)cc3c21 [Example 4.1, 8-(6-Hydroxymethyl-pyridin-3-yl)-3-methyl-1-(4-methyl-pyridin-3-yl)-1,3-dihydro-imidazo[4,5-c]quinolin-2-one] |
| 32.7 | CCNc1cc(-c2ccc3ncc4c(c3c2)n(-c2ccc(N3CC(O)C3)nc2C)c(=O)n4C)cnc1CO [Example 29.2, 8-(5-Ethylamino-6-hydroxymethyl-pyridin-3-yl)-1-[6-(3-hydroxy-azetidin-1-yl)-2-methyl-pyridin-3-yl]-3-methyl-1,3-dihydro-imidazo[4,5-c]quinolin-2-one] |
| 527 | CNc1ncc(-c2ccc3ncc4c(c3c2)n(-c2ncccc2C)c(=O)n4C)cn1 [Example 3.4, 3-Methyl-8-(2-methylamino-pyrimidin-5-yl)-1-(3-methyl-pyridin-2-yl)-1,3-dihydro-imidazo[4,5-c]quinolin-2-one] |
| 19.3 | CNc1ncc(-c2ccc3ncc4c(c3c2)n(-c2ccc(C(C)(C)O)nc2C)c(=O)n4C)cc1F [Example 31.1, 8-(5-Fluoro-6-methylamino-pyridin-3-yl)-1-[6-(1-hydroxy-1-methyl-ethyl)-2-methyl-pyridin-3-yl]-3-methyl-1,3-dihydro-imidazo[4,5-c]quinolin-2-one] |
| 546 | CCOc1ccc(-c2ccc3ncc4c(c3c2)n(-c2ncccc2C)c(=O)n4C)cn1 [Example 3.6, 8-(6-Ethoxy-pyridin-3-yl)-3-methyl-1-(3-methyl-pyridin-2-yl)-1,3-dihydro-imidazo[4,5-c]quinolin-2-one] |
| 23.1 | Cc1nc(N2CCC2)ccc1-n1c(=O)n(C)c2cnc3ccc(-c4cncc(C(C)(C)O)c4)cc3c21 [Example 23.3, 1-(6-Azetidin-1-yl-2-methyl-pyridin-3-yl)-8-[5-(1-hydroxy-1-methyl-ethyl)-pyridin-3-yl]-3-methyl-1,3-dihydro-imidazo[4,5-c]quinolin-2-one] |
| 185 | CN(C)c1ccc(-c2ccc3ncc4c(c3c2)n(-c2cccnc2)c(=O)n4C)cn1 [Example 5.3, 8-(6-Dimethylamino-pyridin-3-yl)-3-methyl-1-pyridin-3-yl-1,3-dihydro-imidazo[4,5-c]quinolin-2-one] |
| 56.2 | CCOc1ccc(-c2ccc3ncc4c(c3c2)n(-c2cccnc2F)c(=O)n4C)cn1 [Example 6.1, 8-(6-Ethoxy-pyridin-3-yl)-1-(2-fluoro-pyridin-3-yl)-3-methyl-1,3-dihydro-imidazo[4,5-c]quinolin-2-one] |
